Experimental data as given in patent US8431593B2, “Heteroaryl amide derivatives” (H. Lundbeck A/S, priority 2006, dated 2013).
pIC50: −log10 of the molar value.

Target: T1, P2X7 receptor (Homo sapiens, UniProt Q99572)
T1 construct: host or cells: SH-SY5Y
T1 sequence (Q99572 1-595): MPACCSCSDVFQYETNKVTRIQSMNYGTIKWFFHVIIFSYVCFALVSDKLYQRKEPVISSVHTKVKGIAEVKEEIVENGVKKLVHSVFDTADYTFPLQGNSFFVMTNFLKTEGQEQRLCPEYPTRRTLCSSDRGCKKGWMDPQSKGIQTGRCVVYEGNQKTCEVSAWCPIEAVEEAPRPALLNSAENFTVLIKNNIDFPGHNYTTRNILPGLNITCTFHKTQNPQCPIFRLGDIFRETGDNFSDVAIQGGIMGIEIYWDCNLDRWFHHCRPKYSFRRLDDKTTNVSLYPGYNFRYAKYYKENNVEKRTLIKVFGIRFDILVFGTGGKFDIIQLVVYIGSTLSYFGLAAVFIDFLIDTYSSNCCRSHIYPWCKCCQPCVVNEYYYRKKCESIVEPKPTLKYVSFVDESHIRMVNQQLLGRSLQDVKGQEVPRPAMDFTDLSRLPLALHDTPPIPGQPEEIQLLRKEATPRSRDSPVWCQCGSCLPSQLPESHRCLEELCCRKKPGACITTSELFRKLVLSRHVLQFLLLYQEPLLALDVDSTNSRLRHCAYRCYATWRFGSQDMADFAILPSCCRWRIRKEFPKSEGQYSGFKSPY
Test: P2X7 calcium mobilization assay, high throughput, antagonist activity (Example 4A)
Assay type: cell-based
Conditions: not given
Summary of the method: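 Antagonism was measured as calcium mobilization on FLIPR^TETRA after a 1 h room-temperature compound preincubation of dye-loaded cells. Baseline from no-agonist wells was subtracted from each well's maximum RFU.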

Row | SMILES | pIC50
1 | NCCNCc1cn2c(C(=O)NCC34CC5CC(CC(C5)C3)C4)cccc2n1 [Compound 122, N-(adamantan-1-ylmethyl)-2-{[(2-aminoethyl)amino]methyl}imi-dazo[1,2-a]pyridine-5-carboxamide] | > 5.70

Same assay, conditions: 50% decrease in the fluorescence response of cells exposed to 80 μM 2′(3′)-O-(4-benzoyl-benzoyl)adenosine 5′-triphosphate; Example 4A; read-out: IC50

Row | SMILES | pIC50
2 | Cn1nnnc1SCc1cn2c(C(=O)NCC34CC5CC(CC(C5)C3)C4)cccc2n1 [Compound 532, N-(adamantan-1-ylmethyl)-2-{[(1-methyl-1H-tetrazol-5-yl)thio]methyl}imidazo [1,2-a]pyridine-5-carboxamide] | > 5.70
3 | CC1(C)[C@@H]2CC[C@@H](CNC(=O)c3cccc4nc(CC(=O)N5CCOC(CN)C5)cn34)[C@H]1C2 (stereo partly drawn) [Compound 594, 2-{2-[2-(aminomethyl)morpholin-4-yl]-2-oxoethyl}-N-{[(1R,2R,5R)-6,6-dimethylbicyclo [3.1.1]hept-2-yl]methyl}imidazo[1,2-a]pyridine-5-carboxamide] | > 5.70
4 | O=C(NCC12CC3CC(CC(C3)C1)C2)c1cccc2nc(CCI)cn12 [Compound 599, N-(adamantan-1-ylmethyl)-2-(2-iodoethyl)imidazo[1,2-a]pyridine-5-carboxamide] | > 5.70

Same assay, conditions: 50% decrease in the fluorescence response of cells exposed to 80 μM of 2′(3′)-O-(4-benzoyl-benzoyl)adenosine 5′-triphosphate; Example 4A; read-out: IC50

Row | SMILES | pIC50
5 | CC(C(=O)N1CCC[C@@H](N)C1)c1cn2c(C(=O)NCC34CC5CC(CC(C5)C3)C4)cccc2n1 (stereo partly shown) [Compound 751, N-(adamantan-1-ylmethyl)-2-[2-(3-aminopiperidin-1-yl)-1-methyl-2-oxoethyl]imidazo [1,2-a]pyridine-5-carboxamide] | > 5.70
6 | CN(Cc1cn2c(C(=O)NCC34CC5CC(CC(C5)C3)C4)cccc2n1)c1ncccc1C(=O)O [Compound 774, 2-[({5-[(adamantan-1-ylmethyl)carbamoyl]imidazo[1,2-a]pyridin-2-yl}methyl) (methyl)amino] nicotinic acid] | > 5.70
7 | CN1CCCCC1CNC(=O)c1cn2c(C(=O)NCC34CC5CC(CC(C5)C3)C4)cccc2n1 (stereo not shown) [Compound 666, 5-N-(adamantan-1-ylmethyl)-2-N-[(1-methylpiperidin-2-yl)methyl]imidazo[1,2-a]pyridine-2,5-dicarboxamide] | > 5.70
8 | CN1CCC(N(C)C(=O)c2cn3c(C(=O)NCC45CC6CC(CC(C6)C4)C5)cccc3n2)CC1 [Compound 671, 5-N-(adamantan-1-ylmethyl)-2-N-methyl-2-N-(1-methylpiperidin-4-yl)imidazo[1,2-a]pyridine-2,5-dicarboxamide] | > 5.70
9 | O=C(NCC1CCCN1)c1cn2c(C(=O)NCC34CC5CC(CC(C5)C3)C4)cccc2n1 (stereo not shown) [Compound 639, 5-N-(adamantan-1-ylmethyl)-2-N-(pyrrolidin-2-ylmethyl)imidazo[1,2-a]pyridine-2,5-dicarboxamide] | > 5.70
10 | COCCN(C(=O)c1cn2c(C(=O)NCC34CC5CC(CC(C5)C3)C4)cccc2n1)C1CCN(C)CC1 [Compound 681, 5-N-(adamantan-1-ylmethyl)-2-N-(2-methoxyethyl)-2-N-(1-methylpiperidin-4-yl)imidazo[1,2-a]pyridine-2,5-dicarboxamide] | > 5.70

Same assay, conditions: 50% decrease in the fluorescence response of cells exposed to 80 μM of 2′(3′)-O-(4-benzoyl-benzoyl)adenosine 5′-triphosphate; determined as in Example 4A; read-out: IC50

Row | SMILES | pIC50
11 | CC(C)CC(CNC(=O)c1cccc2nc(CN3CCC[C@@H](N)C3)cn12)c1ccc(Cl)cc1 (stereo partly drawn) [Compound 916, 2-{[(3R)-3-aminopiperidin-1-yl]methyl}-N-[2-(4-chlorophenyl)-4-methylpentyl] imidazo [1,2-a]pyridine-5-carboxamide] | > 5.70
12 | O=C(NCC12CC3CC(CC(C3)C1)C2)c1cccc2nc(CNc3ccn(CCCO)n3)cn12 [Compound 1000, N-(adamantan-1-ylmethyl)-2-({[1-(3-hydroxypropyl)-1H-pyrazol-3-yl]amino}methyl) imidazo [1,2-a]pyridine-5-carboxamide] | > 5.70
13 | COc1ccc(C2(CNC(=O)c3cccc4nc(CC(=O)N[C@@H]5CCN(C(=O)OC(C)(C)C)C5)cn34)CCCCC2)cc1 [Compound 950, tert-butyl (3R)-3-({[5-({[1-(4-methoxyphenyl)cyclohexyl]methyl}carbamoyl)imidazo [1,2-a]pyridin-2-yl]acetyl}amino) pyrrolidine-1-carboxylate] | > 5.70
14 | CC(C)CC(CNC(=O)c1cccc2nc(C(Cc3ccc(Cl)cc3)C(=O)O)cn12)c1ccc(Cl)cc1 (stereo not shown) [Compound 940, 3-(4-chlorophenyl)-2-(5-{[2-(4-chlorophenyl)-4-methylpentyl]carbamoyl}imidazo[1,2-a]pyridin-2-yl) propanoic acid] | > 5.70
15 | O=C(NCC1(c2ccc(Cl)cc2)CCCCC1)c1cccc2nc(CC(=O)N3CCn4cncc4C3)cn12 [Compound 881, N-{[1-(4-chlorophenyl)cyclohexyl]methyl}-2-[2-(5,6-dihydroimidazo[1,5-a]pyrazin-7(8H)-yl)-2-oxoethyl]imidazo[1,2-a]pyridine-5-carboxamide] | > 5.70
16 | O=C(Cc1cn2c(C(=O)NCC3(c4cccnc4)CCCCC3)cccc2n1)NC1CCCC1 [Compound 865, 2-[2-(cyclopentylamino)-2-oxoethyl]-N-[(1-pyridin-3-ylcyclohexyl)methyl] imidazo[1,2-a] pyridine-5-carboxamide] | > 5.70
17 | CC(C)(C)CCNC(=O)Cc1cn2c(C(=O)NCC3(c4ccc(Cl)cc4)CCOCC3)cccc2n1 [Compound 882, N-{[4-(4-chlorophenyl)tetrahydro-2H-pyran-4-yl]methyl}-2-{2-[(3,3-dimethylbutyl)amino]-2-oxoethyl}imidazo[1,2-a]pyridine-5-carboxamide] | > 5.70

Same assay, conditions: P2X7 calcium mobilization, Example 4A; 50% decrease in the fluorescence response of cells exposed to 80 μM of (2′(3′)-O-(4-benzoyl-benzoyl)adenosine 5′-triphosephate); read-out: IC50

Row | SMILES | pIC50
18 | CC(C)CC(CNC(=O)c1cccc2nc(C(F)(F)F)cn12)c1ccc(Cl)cc1 (stereo not shown) [Compound 1021, N-[2-(4-chlorophenyl)-4-methylpentyl]-2-(trifluoromethyl) imidazo [1,2-a]pyridine-5-carboxamide] | > 5.70

Same assay, conditions: SH-SY5Y cells; 50% decrease in fluorescence response to 80 μM BzATP; read-out: IC50

Row | SMILES | pIC50
19 | NC1CCCN(Cc2cn3c(C(=O)NCC45CC6CC(CC(C6)C4)C5)cccc3n2)C1 (stereo not shown) [Compound 121, N-(adamantan-1-ylmethyl)-2-[(3-aminopiperidin-1-yl)methyl]imidazo[1,2-a]pyridine-5-carboxamide] | > 5.70
20 | CCCOCCNC(=O)Cc1cn2c(C(=O)NCC34CC5CC(CC(C5)C3)C4)cccc2n1 [Compound 159, N-(adamantan-1-ylmethyl)-2-{2-oxo-2-[(2-propoxyethyl)amino]eth-yl}imidazo[1,2-a]pyridine-5-carboxamide] | > 5.70
21 | O=C(NCC12CC3CC(CC(C3)C1)C2)c1cccc2nc(Cn3ccccc3=O)cn12 [Compound 211, N-(adamantan-1-ylmethyl)-2-[(2-oxopyridin-1(2H)-yl)methyl]imidazo[1,2-a]pyridine-5-carboxamide] | > 5.70
22 | O=C(Cc1cn2c(C(=O)NCC34CC5CC(CC(C5)C3)C4)cccc2n1)NCC(F)(F)F [Compound 158, N-(adamantan-1-ylmethyl)-2-{2-oxo-2-[(2,2,2-trifluoroethyl)amino]eth-yl}imidazo[1,2-a]pyridine-5-carboxamide] | > 5.70
23 | CC(=O)NCCNCc1cn2c(C(=O)NCC34CC5CC(CC(C5)C3)C4)cccc2n1 [Compound 67, 2-{[(2-acetamido-ethyl)amino]methyl}-N-(adamantan-1-ylmethyl)imidazo[1,2-a]pyridine-5-carboxamide] | > 5.70
24 | CC(=O)c1cn2c(C(=O)NCC34CC5CC(CC(C5)C3)C4)cccc2n1 [Compound 196, 2-acetyl-N-(adamantan-1-ylmethyl)imidazo[1,2-a]pyridine-5-carboxamide] | > 5.70
25 | CCC(O)CNC(=O)c1cn2c(C(=O)NCC34CC5CC(CC(C5)C3)C4)cccc2n1 (stereo not shown) [Compound 83, 5-N-(adamantan-1-ylmethyl)--(2-hydroxy-butyl)imidazo[1,2-a]pyridine-2,5-dicarboxamide] | > 5.70
26 | Nc1nnnn1Cc1cn2c(C(=O)NCC34CC5CC(CC(C5)C3)C4)cccc2n1 [Compound 207, N-(adamantan-1-ylmethyl)-2-[(5-amino-1H-tetrazol-1-yl)methyl]imidazo[1,2-a]pyridine-5-carboxamide] | > 5.70

Same assay, conditions: fluorescence response of cells exposed to 80 μM 2′(3′)-O-(4-benzoyl-benzoyl)adenosine 5′-triphosphate; Example 4A; read-out: IC50

Row | SMILES | pIC50
27 | CC1(C)[C@H]2CC[C@@H](CNC(=O)c3cccc4nc(C(=O)N5CCC(N)CC5)cn34)[C@@H]1C2 [Compound 326, 2-[(4-aminopiperidin-1-yl)carbonyl]-N-{[(1S,2R,5S)-6.6-dimethylbicyclo[3.1.1]hept-2-yl]methyl}imidazo[1,2-a]pyridine-5-carboxamide] | > 5.70
28 | COC(=O)CN(C)C(=O)c1cn2c(NC(=O)CC34CC5CC(CC(C5)C3)C4)cccc2n1 [Compound 377, methyl N-({5-[(adamantan-1-ylacetyl)amino]imidazo[1,2-a]pyridin-2-yl}carbonyl)-N-methylglycinate] | > 5.70
